Reference: ChEMBL document CHEMBL5532671, “Leucosceptrane Sesterterpenoids as a New Type of Natural Immunosuppressive Agents in Treating Sepsis” (J Med Chem, 2024)

Experiments:
T-cell [1] = assay: Immunosuppressive activity in C57BL/6 female mouse T-cells isolated from spleen assessed as inhibition of LPS-induced IFN-gamma secretion at 20 uM treated for 48 hrs by ELISA based assay relative to control; assay type: functional; conditions: for inhibition at 20 µM: C57BL/6, T-cell
T-cell [2] = assay: Inhibition of proliferation of C57BL/6 female mouse T-cells isolated from spleen at 20 uM relative to control; assay type: functional; conditions: for inhibition at 20 µM: C57BL/6, T-cell
T-cell [3] = assay: Immunosuppressive activity in C57BL/6 female mouse T-cells isolated from spleen assessed as inhibition of LPS-induced IFN-gamma secretion treated for 48 hrs by ELISA based assay; assay type: functional; conditions: C57BL/6, T-cell
T-cell [4] = assay: Inhibition of proliferation of C57BL/6 female mouse T-cells isolated from spleen; assay type: functional, cell-based; conditions: C57BL/6, T-cell

IC50 (T-cell [3])	Molecule	inhibition at 20 µM (T-cell [1])	inhibition at 20 µM (T-cell [2])	inhibition (T-cell [1])	inhibition (T-cell [2])	IC50 (T-cell [4])
–	CC(C)=C[C@H]1O[C@@](C)(CC[C@@]2(O)OC(=O)C=C2C)C2=C1[C@@H](C)[C@@H]1CC[C@H](C)[C@@]1(O)C2=O	36.8%	< 10%	–	–	–
9.8 µM	CC(C)=C[C@H]1O[C@@](C)(CCc2occc2C)[C@@H]2C(=O)[C@H]3[C@@H](CC[C@@H]3C)[C@H](C)[C@@]21O	63.9%	12.3%	–	–	–
–	CC(C)=C[C@H]1O[C@@](C)(C/C=C2/OC(=O)C=C2C)C2=C1[C@@H](C)[C@@H]1CC[C@H](C)[C@@]1(O)C2=O	32.5%	< 10%	–	–	–
8.48 µM	CC(C)=C[C@H]1O[C@@](C)(CC=O)C2=C1[C@@H](C)[C@@H]1CC[C@H](C)[C@]1(O)C2=O	65.4%	< 10%	–	–	–
–	CC(C)=C[C@H]1O[C@@](C)(CCC(=O)O)C2=C1[C@@H](C)[C@@H]1CC[C@H](C)[C@]1(O)C2=O	37.9%	20.2%	–	–	–
–	Norleucosceptroid K	–	–	33.6%	12.1%	–
–	CC(C)=CC(=O)[C@@]1(O)[C@@H](C)[C@@H]2CC[C@H](C)[C@H]2C(=O)[C@@]12OC(=O)C[C@@H]2C	39.6%	< 10%	–	–	–
–	CC(C)=C[C@H]1O[C@@](C)(C/C=C2\NC(=O)C=C2C)[C@@H]2C(=O)[C@H]3[C@@H](CC[C@@H]3C)[C@H](C)[C@@]21O	16.9%	< 10%	–	–	–
–	CC(C)=C[C@H]1O[C@@](C)(CCC(=O)O)C2=C1[C@@H](C)[C@@H]1CC[C@H](C)[C@H]1C2=O	45.9%	18.2%	–	–	–
–	CC(C)=C[C@H]1O[C@@](C)(CC[C@@]2(O)OC(=O)C=C2C)C2=C1[C@@H](C)[C@@H]1CC[C@H](C)[C@]1(O)C2=O	22.4%	< 10%	–	–	–
11.9 µM	CC(C)=C[C@H]1O[C@@](C)(C[C@@H]2C(=O)C(C)=C[C@H]2O)[C@@H]2C(=O)[C@@]3(O)[C@@H](C)CC[C@H]3[C@H](C)[C@@]21O	65.3%	11%	–	–	–
–	CC(C)=C[C@H]1O[C@@](C)(CC[C@@H]2OC(=O)C=C2C)C2=C1[C@@H](C)[C@@H]1CC[C@H](C)[C@]1(O)C2=O	18.7%	< 10%	–	–	–
16.7 µM	CC(C)=CC(=O)[C@@]1(O)[C@@H](C)[C@@H]2CC[C@H](C)[C@H]2C(=O)[C@@]12O[C@@H](c1occc1C)C[C@H]2C	63.4%	< 10%	–	–	–
–	CC(C)=CC(=O)[C@@]1(O)[C@@H](C)[C@@H]2CC[C@H](C)[C@H]2C(=O)[C@]1(O)[C@@H](C)CCc1occc1C	41.6%	< 10%	–	–	–
–	CC(C)=CC(=O)[C@@]1(O)[C@@H](C)[C@@H]2CC[C@H](C)[C@H]2C(=O)[C@]1(O)[C@@H](C)CC[C@]1(O)OC(=O)C=C1C	48.6%	< 10%	–	–	–
–	CC(C)=C[C@H]1O[C@@]2(C)C[C@H]([C@H]3NC(=O)C=C3C)O[C@]13[C@H]2C(=O)[C@H]1[C@@H](CC[C@@H]1C)[C@@H]3C	43.1%	13.1%	–	–	–
–	CC(C)=C[C@H]1O[C@@](C)(C/C=C2\NC(=O)C=C2C)[C@@H]2C(=O)[C@@]3(O)[C@@H](C)CC[C@H]3[C@H](C)[C@@]21O	44%	< 10%	–	–	–
12.6 µM	CC(C)=CC1O[C@@]2(C)CC[C@]3(OC(=O)C=C3C)O[C@]13[C@H]2C(=O)[C@H]1[C@@H](CC[C@@H]1C)[C@@H]3C (some centres not stated)	69.4%	51.5%	–	–	25.8 µM
23.6 µM	CC(C)=C[C@H]1O[C@@](C)(CC[C@@H]2OC(=O)C=C2C)[C@@H]2C(=O)[C@H]3[C@@H](CC[C@@H]3C)[C@H](C)[C@@]21O	57.6%	26.7%	–	–	–
–	CC(C)=CC(=O)[C@]12O[C@]3(CC[C@H](C)[C@@]1(O)C(=O)[C@H]1[C@@H](CC[C@@H]1C)[C@@H]2C)OC(=O)C=C3C	43.3%	< 10%	–	–	–
–	CCC(=O)CC[C@H](C)[C@@]1(O)C(=O)[C@H]2[C@@H](CC[C@@H]2C)[C@H](C)[C@]1(O)C(=O)C=C(C)C	32.6%	< 10%	–	–	–
19.6 µM	CC(C)=C[C@H]1O[C@@](C)(C/C=C2\NC(=O)C=C2C)[C@@H]2C(=O)[C@@H]3[C@@H](CC[C@@H]3C)[C@H](C)[C@@]21O	56.4%	13.8%	–	–	–

IC50 (T-cell [3])	Molecule	inhibition at 20 µM (T-cell [1])	inhibition at 20 µM (T-cell [2])	inhibition (T-cell [1])	inhibition (T-cell [2])	IC50 (T-cell [4])
–	CC(C)=CC(=O)[C@@]1(O)[C@@H](C)[C@@H]2CC[C@H](C)[C@H]2C(=O)[C@]1(O)[C@H](C)CC[C@]1(O)OC(=O)C=C1C	41.3%	11.7%	–	–	–
19.9 µM	CC(C)=C[C@H]1O[C@@](C)(CCc2occc2C)[C@@H]2C(=O)[C@@H]3[C@@H](CC[C@@H]3C)[C@H](C)[C@@]21O	53.7%	< 10%	–	–	–
–	CC(C)=C[C@H]1O[C@@](C)(CC[C@@H]2OC(=O)C=C2C)[C@@H]2C(=O)[C@@]3(O)[C@@H](C)CC[C@H]3[C@H](C)[C@@]21O	39.1%	13.2%	–	–	–
5.59 µM	CC(C)=CC(=O)[C@@]1(O)[C@@H](C)[C@@H]2CC[C@H](C)[C@H]2C(=O)[C@]1(O)[C@H](C)CCc1occc1C	73.6%	27.9%	–	–	–
–	CC(C)=C[C@H]1O[C@@](C)(CCO)C2=C1[C@@H](C)[C@@H]1CC[C@H](C)[C@]1(O)C2=O	39.6%	< 10%	–	–	–
–	CC(C)=CC(=O)[C@@]1(O)[C@@H](C)[C@@H]2CC[C@H](C)[C@H]2C(=O)[C@]1(O)[C@@H](C)CC[C@@H]1OC(=O)C=C1C	32.1%	< 10%	–	–	–
–	CC(C)=CC(=O)[C@]12O[C@@H]([C@]3(O)OC(=O)C=C3C)C[C@H](C)[C@@]1(O)C(=O)[C@H]1[C@@H](CC[C@@H]1C)[C@@H]2C	36.9%	< 10%	–	–	–
26.8 µM	CC(C)=C[C@H]1O[C@@](C)(C/C=C2\NC(=O)C=C2C)C2=C1[C@@H](C)[C@@H]1CC[C@H](C)[C@]1(O)C2=O	66%	10.4%	–	–	–
–	CC(C)=C[C@H]1O[C@@]2(C)C[C@H](c3occc3C)O[C@]13[C@H]2C(=O)[C@H]1[C@@H](CC[C@@H]1C)[C@@H]3C	49.7%	13.6%	–	–	–
–	CC(C)=C[C@H]1O[C@@](C)(CCc2occc2C)[C@@H]2C(=O)[C@@]3(O)[C@@H](C)CC[C@H]3[C@H](C)[C@@]21O	40.4%	16.8%	–	–	–
–	CC(C)=C[C@H]1O[C@@](C)(CC[C@@]2(O)OC(=O)C=C2C)[C@@H]2C(=O)[C@@H]3[C@@H](CC[C@@H]3C)[C@H](C)[C@@]21O	47.5%	15.3%	–	–	–
–	CC(C)=CC(=O)[C@@]1(O)[C@@H](C)[C@@H]2CC[C@H](C)[C@H]2C(=O)[C@@]12O[C@@H](c1occc1C)C[C@@H]2C	34.6%	< 10%	–	–	–
–	CC(C)=C[C@H]1O[C@@](C)(CC[C@@H]2OC(=O)C=C2C)[C@@H]2C(=O)[C@@]3(OO)[C@@H](C)CC[C@H]3[C@H](C)[C@@]21O	29.9%	11.8%	–	–	–
–	CC(C)=C[C@H]1O[C@@](C)(CC[C@@H]2OC(=O)C=C2C)C2=C1[C@@H](C)[C@@H]1CC[C@H](C)[C@@H]1C2=O	31.3%	< 10%	–	–	–
–	CC(C)=C[C@H]1O[C@@](C)(CC[C@@H]2OC(=O)C=C2C)[C@@H]2C(=O)[C@@H]3[C@@H](CC[C@@H]3C)[C@H](C)[C@@]21O	37.1%	25.4%	–	–	–
–	CC(C)=CC1O[C@@]2(C)CC[C@]3(OC(=O)C=C3C)O[C@]13[C@H]2C(=O)[C@@]1(O)[C@@H](C)CC[C@H]1[C@@H]3C (some centres not stated)	40.9%	< 10%	–	–	–
–	CC(C)=C[C@H]1O[C@@](C)(C/C=C2\OC(=O)C=C2C)[C@@H]2C(=O)[C@]3(O)[C@@H](C)CC[C@H]3[C@H](C)[C@@]21O	45.4%	< 10%	–	–	–
–	CC(C)=C[C@H]1O[C@@]2(C)C[C@H]([C@]3(O)OC(=O)C=C3C)O[C@]13[C@H]2C(=O)[C@@]1(O)[C@@H](C)CC[C@H]1[C@@H]3C	43.6%	26%	–	–	–
22 µM	CC(C)=C[C@H]1O[C@@]2(C)C[C@H](c3occc3C)O[C@]13[C@H]2C(=O)[C@@]1(O)[C@@H](C)CC[C@H]1[C@@H]3C	57.7%	18.6%	–	–	–
–	CC(C)=C[C@H]1O[C@@](C)(CC(=O)O)C2=C1[C@@H](C)[C@@H]1CC[C@H](C)[C@H]1C2=O	39.9%	25%	–	–	–
11.6 µM	CC(C)=C[C@H]1O[C@@](C)(C[C@H]2C(=O)C(C)=C[C@@H]2O)[C@@H]2C(=O)[C@@]3(O)[C@@H](C)CC[C@H]3[C@H](C)[C@@]21O	57.3%	11.8%	–	–	–
9.15 µM	CC(C)=C[C@H]1O[C@@](C)(CCc2occc2C)[C@@H]2C(=O)[C@]3(O)[C@@H](C)CC[C@H]3[C@H](C)[C@@]21O	56.8%	< 10%	–	–	–
